Reference: patent US20220064214A1, “NOVEL PEPTIDES AND USES THEREOF” (CENNA BIOSCIENCES INC., priority 2019, published 2022)
Read-outs that look alike come from different tables or passages of the source. Square brackets hold non-standard residues; d marks the D form. Ends that are not written are not given here. Peptide text beside a SMILES is read from it.

Key:
[1] = PK analysis of 8M2D in transgenic mice (APPSWE), plasma; settings: mouse, in vivo, sc
Text: Pharmacokinetics (PK) of 8M2D was further analyzed with various doses at days 1 and 13 in transgenic mice (APPSWE (B6; SJL 2576 Kha; Taconic)). See Hsiao et al., Correlative memory deficits, Aβ elevation, and amyloid plaques in transgenic mice. Science 274:99-102 (1996); and Haugabook et al., Reduction of Abeta accumulation in the Tg2576 animal model of Alzheimer's disease after oral administration of the phosphatidyl-inositol kinase inhibitor wortmannin. Faseb J 15:16-18 (2001).

[2] = Metabolic stability of peptides in fresh human plasma (LC/MS/MS); type: in vitro ADME
Description: P8, 8M1, and 8M1D were generated according to Example 1 with purities ranging from 98.0% to 99.0%. A primary 1.00 mM stock solution was prepared in either acetonitrile or acetonitrile:water (1:1, v/v) for each peptide. A 0.200 mM working stock was made from the primary stock in acetonitrile:water (1:1, v/v), which was used for the reactions. The primary and working stock solutions were stored at −20° C. when not in use, and they were kept at room temperature for as short a time as possible when in use. Fresh human plasma were maintained by adding sodium heparin as an anticoagulant.
The incubation procedures started when 5.00 μL of 0.2 mM (working stock solutions) of different peptides were added to 0.995 mL of fresh human plasma in a 1.7-mL snap tube. After 3, 8 and 24 hours of incubation, duplicate 50.0 μL aliquots of plasma were removed and placed into extraction tubes containing 150 μL of methanol, which served to quench any reactions, and thus incubations were ended. For each time point, the aliquotes were immediately extracted by vortex mixing and centrifugation. Resulting supernates were stored in High-Performance Liquid Chromatography (HPLC) vials and analyzed by LC/MS/MS after all samples were extracted. Valacyclovir was used as a positive control.
LC/MS/MS analysis of the incubation solutions was conducted by initial separation of the test article peaks using chromatography prior to detection by the mass spectrometer. The LC/MS system was comprised of a HPLC coupled with a TQS-Micro or Quattro Premier (Waters, Milford, Mass.). The mobile phase was nebulized using heated nitrogen in a Z spray source/interface set to electrospray in positive ionization mode for the peptides. The ionized peptides were detected using Tandem Quadropole Mass Spectrometry (MS/MS). The data was acquired using MassLynx (Waters, Milford, Mass.).
HPLC for the peptides and Valacyclovir control were performed with no guard columns, with a flow rate at 0.3 mL/min, with column temperature at 40° C., and autosampler temperature at 10° C. The column for peptides was MacMod ACE 2 Excel C18PFP, 100×2.1-mm, 2.0 μm, and the column for the control was Waters Atlantis T3, 150×2.1-mm, 5.0 μm. The injection loop and volumn for peptides were 50.0 μL and 20.0 μL respectively, and the ones for controls were 20.0 μL and 2.00 μL. For the Mass Spectrometer for the peptides and the Valacyclovir control, the source temperature was set to be 150° C., desolvation temperature was set to be 350° C., and polarity was set to be positive mode of electrospray ionization. Other parameters in HPLC and Mass Spectrometer are shown in Table 2.1, Table 2.2 and Table 3 below.

Work on `CC(=O)N[C@H](CC(=O)O)C(=O)N[C@@H](CCC(=O)O)C(=O)N[C@@H](CCC(=O)O)C(=O)N[C@@H](CCC(=O)O)C(=O)N[C@@H](CC(=O)O)C(=O)N[C@@H](CCC(=O)O)C(=O)N[C@@H](CCC(=O)O)C(=O)N[C@@H](CC(C)C)C(N)=O` [8M2D, Ac-dEEEDEEL-NH2] (Ac-[dD]EEEDEEL-NH2) yielded an AUC(0-t) ([1]; 10 mg/kg, Day 1, 10 mg/kg, read-out: AUClast) of 12800 ng·h/mL, a CL/F ([1]; 10 mg/kg, Day 1, 10 mg/kg, read-out: Cl/F) of 13 mL/min/kg and a Cmax ([1]; 10 mg/kg, Day 1, 10 mg/kg, read-out: Cmax) of 14.4 µg/mL. It also gave a Tmax ([1]; 10 mg/kg, Day 1, 10 mg/kg, read-out: Tmax) of 0.17 h, a Vd/F ([1]; 10 mg/kg, Day 1, 10 mg/kg, read-out: Vz/F) of 8.84 L/kg and a half-life ([1]; 10 mg/kg, Day 1, 10 mg/kg, read-out: t1/2 (converted)) of 7.9 h. It also gave an AUC(0-t) ([1]; 10 mg/kg, Day 13, 10 mg/kg, read-out: AUClast) of 11600 ng·h/mL, a CL/F ([1]; 10 mg/kg, Day 13, 10 mg/kg, read-out: Cl/F) of 14.1 mL/min/kg and a Cmax ([1]; 10 mg/kg, Day 13, 10 mg/kg, read-out: Cmax) of 12.4 µg/mL. For the same compound, the Tmax ([1]; 10 mg/kg, Day 13, 10 mg/kg, read-out: Tmax) was 0.17 h, the Vd/F ([1]; 10 mg/kg, Day 13, 10 mg/kg, read-out: Vz/F) was 10.2 L/kg and the half-life ([1]; 10 mg/kg, Day 13, 10 mg/kg, read-out: t1/2 (converted)) was 8.4 h. It also gave an AUC(0-t) ([1]; 50 mg/kg, Day 1, 50 mg/kg, read-out: AUClast) of 70500 ng·h/mL, a CL/F ([1]; 50 mg/kg, Day 1, 50 mg/kg, read-out: Cl/F) of 11.8 mL/min/kg and a Cmax ([1]; 50 mg/kg, Day 1, 50 mg/kg, read-out: Cmax) of 111 µg/mL. The Tmax ([1]; 50 mg/kg, Day 1, 50 mg/kg, read-out: Tmax) was 0.17 h, the Vd/F ([1]; 50 mg/kg, Day 1, 50 mg/kg, read-out: Vz/F) was 7.59 L/kg and the half-life ([1]; 50 mg/kg, Day 1, 50 mg/kg, read-out: t1/2 (converted)) was 7.4 h. It also gave an AUC(0-t) ([1]; 50 mg/kg, Day 13, 50 mg/kg, read-out: AUClast) of 49700 ng·h/mL, a CL/F ([1]; 50 mg/kg, Day 13, 50 mg/kg, read-out: Cl/F) of 12.9 mL/min/kg and a Cmax ([1]; 50 mg/kg, Day 13, 50 mg/kg, read-out: Cmax) of 73 µg/mL. It also gave a Tmax ([1]; 50 mg/kg, Day 13, 50 mg/kg, read-out: Tmax) of 0.17 h, a Vd/F ([1]; 50 mg/kg, Day 13, 50 mg/kg, read-out: Vz/F) of 148 L/kg and a half-life ([1]; 50 mg/kg, Day 13, 50 mg/kg, read-out: t1/2 (converted)) of 130 h. For the same compound, the AUC(0-t) ([1]; 250 mg/kg, Day 1, 250 mg/kg, read-out: AUClast) was 176000 ng·h/mL, the CL/F ([1]; 250 mg/kg, Day 1, 250 mg/kg, read-out: Cl/F) was 23.6 mL/min/kg and the Cmax ([1]; 250 mg/kg, Day 1, 250 mg/kg, read-out: Cmax) was 207 µg/mL. It also gave a Tmax ([1]; 250 mg/kg, Day 1, 250 mg/kg, read-out: Tmax) of 0.17 h, a Vd/F ([1]; 250 mg/kg, Day 1, 250 mg/kg, read-out: Vz/F) of 5.84 L/kg and a half-life ([1]; 250 mg/kg, Day 1, 250 mg/kg, read-out: t1/2 (converted)) of 2.9 h. It also gave an AUC(0-t) ([1]; 250 mg/kg, Day 1, Mean over the 10, 50 and 250 mg/kg doses (N 3), read-out: AUClast, Mean) of 86400 ng·h/mL, a CL/F ([1]; 250 mg/kg, Day 1, Mean over the 10, 50 and 250 mg/kg doses (N 3), read-out: Cl/F, Mean) of 16.1 mL/min/kg and a Cmax ([1]; 250 mg/kg, Day 1, Mean over the 10, 50 and 250 mg/kg doses (N 3), read-out: Cmax, Mean) of 111 µg/mL. The Tmax ([1]; 250 mg/kg, Day 1, Mean over the 10, 50 and 250 mg/kg doses (N 3), read-out: Tmax, Mean) was 0.167 h, the Vd/F ([1]; 250 mg/kg, Day 1, Mean over the 10, 50 and 250 mg/kg doses (N 3), read-out: Vz/F, Mean) was 7.42 L/kg and the half-life ([1]; 250 mg/kg, Day 1, Mean over the 10, 50 and 250 mg/kg doses (N 3), read-out: t1/2, Mean (converted)) was 6.06 h. The AUC(0-t) ([1]; 250 mg/kg, Day 13, 250 mg/kg, read-out: AUClast) was 290000 ng·h/mL, the CL/F ([1]; 250 mg/kg, Day 13, 250 mg/kg, read-out: Cl/F) was 13.5 mL/min/kg and the Cmax ([1]; 250 mg/kg, Day 13, 250 mg/kg, read-out: Cmax) was 278 µg/mL. It also gave a Tmax ([1]; 250 mg/kg, Day 13, 250 mg/kg, read-out: Tmax) of 0.17 h, a Vd/F ([1]; 250 mg/kg, Day 13, 250 mg/kg, read-out: Vz/F) of 33.4 L/kg and a half-life ([1]; 250 mg/kg, Day 13, 250 mg/kg, read-out: t1/2 (converted)) of 29 h. The AUC(0-t) ([1]; 250 mg/kg, Day 13, Mean over the 10, 50 and 250 mg/kg doses (N 3), read-out: AUClast, Mean) was 117000 ng·h/mL, the CL/F ([1]; 250 mg/kg, Day 13, Mean over the 10, 50 and 250 mg/kg doses (N 3), read-out: Cl/F, Mean) was 13.5 mL/min/kg and the Cmax ([1]; 250 mg/kg, Day 13, Mean over the 10, 50 and 250 mg/kg doses (N 3), read-out: Cmax, Mean) was 121 µg/mL. The Tmax ([1]; 250 mg/kg, Day 13, Mean over the 10, 50 and 250 mg/kg doses (N 3), read-out: Tmax, Mean) was 0.167 h, the Vd/F ([1]; 250 mg/kg, Day 13, Mean over the 10, 50 and 250 mg/kg doses (N 3), read-out: Vz/F, Mean) was 63.8 L/kg and the half-life ([1]; 250 mg/kg, Day 13, Mean over the 10, 50 and 250 mg/kg doses (N 3), read-out: t1/2, Mean (converted)) was 56.5 h.

In the case of “DEEEDEEL-OH [P8, DEEEDEEL, reference compound]”, the “stability in fresh human plasma (in words)” value [2] was “relatively stable”, the “% Remaining” value ([2]; fresh human plasma, 0 h incubation) was 100% and the remaining at 3 h, 1 µM ([2]; fresh human plasma, 3 h incubation) was 115%. It also gave a remaining at 8 h, 1 µM ([2]; fresh human plasma, 8 h incubation) of 99.7% and a remaining at 24 h, 1 µM ([2]; fresh human plasma, 24 h incubation) of 72%.
